According to ChEMBL document CHEMBL1150512, “A new class of angiotensin II receptor antagonists with a novel acidic bioisostere” (Bioorg Med Chem Lett, 1995):

What was measured:
[1] = target: T1, Type-1 angiotensin II receptor (Bos taurus, UniProt P25104); experiment: Displacement of [125 I]-AII (0.2 nM) from bovine adrenal cortical membrane angiotensin II (AII) receptor at 10e-7 M
T1 sequence (P25104 whole entry): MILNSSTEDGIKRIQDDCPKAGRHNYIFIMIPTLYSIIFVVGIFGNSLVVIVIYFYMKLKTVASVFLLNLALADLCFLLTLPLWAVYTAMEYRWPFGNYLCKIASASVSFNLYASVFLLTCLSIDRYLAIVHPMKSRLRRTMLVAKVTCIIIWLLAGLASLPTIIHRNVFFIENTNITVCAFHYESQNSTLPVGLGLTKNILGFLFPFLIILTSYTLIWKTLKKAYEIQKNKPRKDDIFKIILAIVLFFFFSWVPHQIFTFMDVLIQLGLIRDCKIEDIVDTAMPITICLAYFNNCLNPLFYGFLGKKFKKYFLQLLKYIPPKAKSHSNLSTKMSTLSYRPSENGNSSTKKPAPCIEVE

Rattus norvegicus [2] = experiment: Inhibitory activity against the pressor response induced by Angiotensin II (AII) in conscious rats, at 1 mg/kg p.o. at 3h; type: functional; conditions: route oral
Rattus norvegicus [3] = experiment: Inhibitory activity against the pressor response induced by angiotensin II (AII) in conscious rats, at 1 mg/kg p.o. at 7 hr; type: functional; conditions: route oral
Rattus norvegicus [4] = experiment: Inhibitory activity against the pressor response induced by Angiotensin II (AII) in conscious rats, at 1 mg/kg p.o. at 7 hr; type: functional; conditions: route oral
[5] = Partition coefficient (logP); type: physicochemical; conditions: octanol/water
Rattus norvegicus [6] = experiment: Tested for dose-dependent inhibition of Angiotensin II (AII)-induced pressor response at more than 0.01 mg/kg, p.o.; type: functional; conditions: route oral, read-out: ID50 (the source's name)
Rattus norvegicus [7] = species: Rattus norvegicus; experiment: pD2 value of compound was determined; type: functional
[8] = Percent oral bioavailability examined in rats; type: ADME, organism-based; conditions: rat, in vivo
Rattus norvegicus [9] = experiment: Dose-dependent reduction of blood pressure in spontaneously hypertensive rats administered orally (antihypertensive effect); type: functional; conditions: po
Rattus norvegicus [10] = experiment: Inhibitory activity against the pressor response induced by angiotensin II (AII) in conscious rats, at 1 mg/kg p.o. at 3h; type: functional; conditions: route oral

What does the source list for `CCc1nc2cccc(C(=O)O)c2n1Cc1ccc(-c2ccccc2-c2noc(O)n2)cc1`?
IC50 [1]: 310 nM; inhibition in vivo at 1 mg/kg (Rattus norvegicus [2]): 88%; inhibition in vivo at 1 mg/kg (Rattus norvegicus [3]): 67%

What does the source list for `CNc1nc2cccc(C(=O)O)c2n1Cc1ccc(-c2ccccc2-c2noc(O)n2)cc1`?
IC50 [1]: 260 nM; inhibition in vivo at 1 mg/kg (Rattus norvegicus [2]): 14%; inhibition in vivo at 1 mg/kg (Rattus norvegicus [4]): 13%

For `CCNc1nc2cccc(C(=O)O)c2n1Cc1ccc(-c2ccccc2-c2noc(O)n2)cc1`, which IC50 [1] is on record?
Its IC50 is 42 nM.

What about the inhibition in vivo at 1 mg/kg (Rattus norvegicus [2]) of the same compound?
Its inhibition in vivo at 1 mg/kg is 25%.

And the inhibition in vivo at 1 mg/kg (Rattus norvegicus [4])?
The inhibition in vivo at 1 mg/kg was 6%.

What does the source list for `CCCOc1nc2cccc(C(=O)O)c2n1Cc1ccc(-c2ccccc2-c2noc(O)n2)cc1`?
IC50 [1]: 790 nM; inhibition in vivo at 1 mg/kg (Rattus norvegicus [2]): 100%; inhibition in vivo at 1 mg/kg (Rattus norvegicus [4]): 100%

For `CCSc1nc2cccc(C(=O)O)c2n1Cc1ccc(-c2ccccc2-c2noc(O)n2)cc1`, which IC50 [1] is on record?
Its IC50 is 480 nM.

What about the inhibition in vivo at 1 mg/kg (Rattus norvegicus [2]) of the same compound?
The inhibition in vivo at 1 mg/kg was 83%.

And the inhibition in vivo at 1 mg/kg (Rattus norvegicus [4])?
Its inhibition in vivo at 1 mg/kg is 100%.

Which IC50 [1] does the source give for `CCCCc1nc2cccc(C(=O)O)c2n1Cc1ccc(-c2ccccc2-c2noc(O)n2)cc1` here?
The IC50 was 620 nM.

What about the inhibition in vivo at 1 mg/kg (Rattus norvegicus [2]) of the same compound?
Its inhibition in vivo at 1 mg/kg is 68%.

And the inhibition in vivo at 1 mg/kg (Rattus norvegicus [4])?
Its inhibition in vivo at 1 mg/kg is 64%.

Which results are given for `CCCSc1nc2cccc(C(=O)O)c2n1Cc1ccc(-c2ccccc2-c2noc(O)n2)cc1`?
IC50 [1]: 850 nM; inhibition in vivo at 1 mg/kg (Rattus norvegicus [2]): 80%; inhibition in vivo at 1 mg/kg (Rattus norvegicus [4]): 100%

With `CSc1nc2cccc(C(=O)O)c2n1Cc1ccc(-c2ccccc2-c2noc(O)n2)cc1` as the compound, how does the IC50 [1] read?
The IC50 was 390 nM.

What about the inhibition in vivo at 1 mg/kg (Rattus norvegicus [2]) of the same compound?
Its inhibition in vivo at 1 mg/kg is 100%.

And the inhibition in vivo at 1 mg/kg (Rattus norvegicus [4])?
The inhibition in vivo at 1 mg/kg was 100%.

With `COc1nc2cccc(C(=O)O)c2n1Cc1ccc(-c2ccccc2-c2noc(O)n2)cc1` as the compound, how does the IC50 [1] read?
Its IC50 is 360 nM.

And the inhibition in vivo at 1 mg/kg (Rattus norvegicus [2])?
Its inhibition in vivo at 1 mg/kg is 90%.

What about the inhibition in vivo at 1 mg/kg (Rattus norvegicus [4]) of the same compound?
The inhibition in vivo at 1 mg/kg was 88%.

With `CCCc1nc2cccc(C(=O)O)c2n1Cc1ccc(-c2ccccc2-c2noc(O)n2)cc1` as the compound, how does the IC50 [1] read?
The IC50 was 420 nM.

What about the inhibition in vivo at 1 mg/kg (Rattus norvegicus [2]) of the same compound?
The inhibition in vivo at 1 mg/kg was 100%.

And the inhibition in vivo at 1 mg/kg (Rattus norvegicus [4])?
The inhibition in vivo at 1 mg/kg was 88%.

What does the source list for `CCOc1nc2cccc(C(=O)O)c2n1Cc1ccc(-c2ccccc2-c2noc(=O)[nH]2)cc1` [AZILSARTAN]?
logP [5]: 0.9; IC50 [1]: 420 nM; inhibition in vivo at 1 mg/kg (Rattus norvegicus [2]): 100%; inhibition in vivo at 1 mg/kg (Rattus norvegicus [4]): 100%; ED50 (Rattus norvegicus [6]): 0.06 mg/kg; pD2 (Rattus norvegicus [7]): 9.93; bioavailability [8]: 20%; ED25 (Rattus norvegicus [9]): 0.4 mg/kg

Which ED25 (Rattus norvegicus [9]) does the source give for `CCOc1nc2cccc(C(=O)OC(C)OC(=O)OC3CCCCC3)c2n1Cc1ccc(-c2ccccc2-c2nn[nH]n2)cc1` (stereo not given) [CANDESARTAN CILEXETIL] here?
Its ED25 is 0.68 mg/kg.

What does the source list for `CCOc1nc2cccc(C(=O)O)c2n1Cc1ccc(-c2ccccc2-c2nnn[nH]2)cc1` [CANDESARTAN]?
logP [5]: 0.32; pD2 (Rattus norvegicus [7]): 9.97; inhibition in vivo at 1 mg/kg (Rattus norvegicus [3]): 92%; inhibition in vivo at 1 mg/kg (Rattus norvegicus [10]): 100%

Which results are given for `CCCCc1nc(Cl)c(CO)n1Cc1ccc(-c2ccccc2-c2nnn[nH]2)cc1` [LOSARTAN]?
inhibition in vivo at 1 mg/kg (Rattus norvegicus [3]): 34%; inhibition in vivo at 1 mg/kg (Rattus norvegicus [10]): 21%
